From paper PMC10092844, “Inhibition profile of trifludimoxazin towards PPO2 target site mutations” (Pest Management Science, 2022) come the findings set out here.

Substitutions are numbered along the chain they refer to. A value given as a limit tells only on which side of the number the result lay.

Broadly, the IC50 is the midpoint of a concentration-inhibition curve.

The target in assay [1] is T1, PPO2 R128I ΔG210 in Escherichia coli hemG (Amaranthus tuberculatus, UniProt Q0NZW9, DEL210-210/R128I, cells depend on it).
T1 sequence (Q0NZW9 with tags, fused parts or gaps R128I/DEL210-210): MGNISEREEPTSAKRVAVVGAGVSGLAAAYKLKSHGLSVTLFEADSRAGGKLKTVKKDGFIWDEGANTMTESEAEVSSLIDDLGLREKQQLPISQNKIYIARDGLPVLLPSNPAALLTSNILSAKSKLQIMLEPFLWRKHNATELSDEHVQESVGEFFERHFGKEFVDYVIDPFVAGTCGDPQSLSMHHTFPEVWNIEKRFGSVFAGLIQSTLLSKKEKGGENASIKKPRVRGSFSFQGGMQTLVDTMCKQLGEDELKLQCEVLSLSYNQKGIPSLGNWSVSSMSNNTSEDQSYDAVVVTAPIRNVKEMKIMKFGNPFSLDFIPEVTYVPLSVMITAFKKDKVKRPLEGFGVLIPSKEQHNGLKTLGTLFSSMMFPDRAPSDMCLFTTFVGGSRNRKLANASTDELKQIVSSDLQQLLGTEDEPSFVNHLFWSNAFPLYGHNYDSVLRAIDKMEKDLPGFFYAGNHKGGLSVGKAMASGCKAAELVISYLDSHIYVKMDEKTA
Format: cell-based. To be noted: read-out: IC50 (E. coli hemG growth).

The target in the next assay is T2, PPO2 R128C ΔG210 (Amaranthus tuberculatus, UniProt Q0NZW9, DEL210/R128C).
T2 sequence (Q0NZW9 with tags, fused parts or gaps R128C/DEL210): T1 sequence (Q0NZW9 with tags, fused parts or gaps R128I/DEL210-210) with I98C
As to the kind of experiment: biochemical. Format: biochemical.

The target of assay [2] is T3, PPO2 R128L ΔG210 in Escherichia coli hemG (Amaranthus tuberculatus, UniProt Q0NZW9, DEL210-210/R128L, cells depend on it).
T3 sequence (Q0NZW9 with tags, fused parts or gaps R128L/DEL210-210): T1 sequence (Q0NZW9 with tags, fused parts or gaps R128I/DEL210-210) with I98L
Format: cell-based. Particulars: read-out: IC50 (E. coli hemG growth).

The target of a further assay is T4, PPO2 G399A (Amaranthus tuberculatus, UniProt Q0NZW9, G398A).
T4 sequence (Q0NZW9 31-534 G398A): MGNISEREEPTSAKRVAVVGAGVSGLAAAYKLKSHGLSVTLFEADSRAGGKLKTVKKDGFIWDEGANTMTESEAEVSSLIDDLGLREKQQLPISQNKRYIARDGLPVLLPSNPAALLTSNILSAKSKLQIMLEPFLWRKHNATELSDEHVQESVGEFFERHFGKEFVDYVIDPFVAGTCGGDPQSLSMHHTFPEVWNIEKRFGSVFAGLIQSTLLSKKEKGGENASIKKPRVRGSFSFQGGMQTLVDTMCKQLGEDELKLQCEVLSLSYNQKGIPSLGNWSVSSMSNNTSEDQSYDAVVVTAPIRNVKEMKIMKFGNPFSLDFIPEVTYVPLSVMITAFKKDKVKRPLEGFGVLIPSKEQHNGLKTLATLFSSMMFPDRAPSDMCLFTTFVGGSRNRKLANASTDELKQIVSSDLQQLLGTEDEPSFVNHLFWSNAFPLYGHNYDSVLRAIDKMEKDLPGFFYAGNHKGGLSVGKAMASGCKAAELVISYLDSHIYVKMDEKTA
Put plainly: biochemical. The format is biochemical.

In the next assay the target is T5, PPO2 R128L ΔG210 (Amaranthus tuberculatus, UniProt Q0NZW9, DEL210-210/R128L).
T5 sequence (Q0NZW9 with tags, fused parts or gaps R128L/DEL210-210): T1 sequence (Q0NZW9 with tags, fused parts or gaps R128I/DEL210-210) with I98L
Put plainly: biochemical. The format is biochemical.

Another assay concerns the target T6, PPO2 R128E ΔG210 (Amaranthus tuberculatus, UniProt Q0NZW9, DEL210/R128E).
T6 sequence (Q0NZW9 with tags, fused parts or gaps R128E/DEL210): T1 sequence (Q0NZW9 with tags, fused parts or gaps R128I/DEL210-210) with I98E
Put plainly: biochemical. Format: biochemical.

For `CC(C)N(C)S(=O)(=O)NC(=O)c1cc(-n2c(=O)cc(C(F)(F)F)n(C)c2=O)c(F)cc1Cl` [Saflufenacil, saflufenacil], the IC50 in assay [1] is more than 10000 nM; against PPO2 R128C ΔG210, more than 10000 nM; in assay [2], more than 10000 nM; at PPO2 G399A it was 627 nM; against PPO2 R128L ΔG210, more than 10000 nM; against PPO2 R128E ΔG210, more than 10000 nM.

Consider `CS(=O)(=O)NC(=O)c1cc(Oc2ccc(C(F)(F)F)cc2Cl)ccc1[N+](=O)[O-]` [Fomesafen, fomesafen], for which the IC50 against PPO2 R128C ΔG210, against PPO2 G399A, against PPO2 R128L ΔG210 and at PPO2 R128E ΔG210 was more than 10000 nM each time.

In the case of `C#CCN1C(=O)C(F)(F)Oc2cc(F)c(-n3c(=O)n(C)c(=S)n(C)c3=O)cc21` [Trifludimoxazin, trifludimoxazin], the IC50 in assay [1] is 82.9 nM; against PPO2 R128C ΔG210 it was 31.1 nM; in assay [2], 39.9 nM; on PPO2 G399A, 1.17 nM; on PPO2 R128L ΔG210, 5.68 nM; at PPO2 R128E ΔG210, 8.61 nM. The Resistance factor is 127 at PPO2 R128C ΔG210, 23 on PPO2 R128L ΔG210 and 35 on PPO2 R128E ΔG210.

For `CCOC(=O)C(C)OC(=O)c1cc(Oc2ccc(C(F)(F)F)cc2Cl)ccc1[N+](=O)[O-]` (stereo not shown) [Lactofen, lactofen], the IC50 in assay [1] is more than 10000 nM; on PPO2 R128C ΔG210, 2150 nM; in assay [2] it was more than 10000 nM; against PPO2 G399A, 1580 nM; at PPO2 R128L ΔG210, 649 nM; at PPO2 R128E ΔG210, 649 nM.
